According to patent US9873693B2 (Sunesis Pharmaceuticals, Inc., priority 2006, dated 2018):
Like-named read-outs stand apart in the source and are kept apart here.

How the values were obtained:
phosphorylated PDK1 = phosphorylated PDK1 (Homo sapiens (Human), UniProt O15530); experiment: PDK1 kinase assay (coupled PDK1/AKT/FAM-crosstide, IMAP); format: biochemical; conditions: 0.5 nM phosphorylated PDK1, 24 μM ATP; read-out: Inhibition of phospo-PDK1 in vitro IC50
phospho-akt (Thr308) = phospho-akt (Thr308) MSD ELISA in PC-3 cells; format: cell-based; conditions: Homo sapiens; for EC50: PC-3, 2 h; for inhibition at 1 µM / inhibition at 10 µM: read-out: Percent Inhibition of phospho-Akt (308) By MSD ELISA
Procedure, shortened: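 Read-out is MSD electrochemiluminescence after lysate capture overnight at 4 degrees and 1 hr RT detection-antibody step. Before lysis, overnight-plated PC-3 cells received three-fold serial dilutions of inhibitor in serum-free medium, with DMSO-only high controls.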

Phospho-T308 Akt = Phospho-T308 Akt detection using immunoblot (western blot) in PC-3 cells; format: cell-based; conditions: for Reduction of Cellular Levels of Akt p308 By Western: 2 hour incubation, concentration not given in Table 2; for inhibition at 5 µM / inhibition at 2 µM: Homo sapiens, read-out: Percent Inhibition of phospho-Akt (308) By Western
Experimental: A Phospho-T308 Akt detection using immunoblot (western blot) analysis was performed as described below.
PC-3 prostate cells were plated in a 6 well plate in F12K media (Invitrogen, Carlsbad, Calif.) plus 10% FBS (Invitrogen) and placed in incubator overnight. The stock of compound A was a 50 mM solution in DMSO. 1000× dilutions of the compound were made in DMSO. The 1000× dilutions include, 35 mM, 25 mM, 15 mM, 10 mM, 7 mM, 5 mM, and 1 mM. 1 μl of the 1000× dilutions was added to 1 ml F12K media without serum for final concentrations of […]. 1 μl of DMSO was added to 1 ml media with no serum for a control. The 1 ml DMSO or compound plus media was then added to the cells. Following a 2 hour incubation at 37° C., cells were harvested and washed in PBS and subjected to centrifugation at 3,300 rpm for 5 minutes. Cells were lysed in 100 μl of Bio Rad Bioplex buffer containing protease inhibitors (BioRad, Hercules, Calif.) for 30 minutes on ice followed by centrifugation at 13,000 rpm for 5 minutes. The protein content of the supernatant was assayed using DC Protein Assay (BioRad). 25 μl of protein was added to 4× sample buffer (Invitrogen) and sample reducer (Invitrogen) and run on a 4-12% NuPage gel (Invitrogen). Proteins were then transferred to nitrocellulose (Invitrogen). The membrane was blocked in Tris-buffered saline (Sigma, St. Louis, Mo.) plus 0.1% Tween (Sigma) (T-TBS) plus 5% blotting grade milk (BioRad) for 60 minutes. Membranes were then incubated in T-TBS plus 5% BSA (Sigma) plus 1:1000 of anti-phospho akt (Thr 308) (Cell Signaling Technology, Beverly, Mass.) overnight at 4° C. Membranes were washed in T-TBS then incubated in 1:2000 of anti-rabbit-HRP (Cell Signaling) in TTBS plus 5% milk. Membranes were washed again and proteins were visualized with Super Signal West Pico (Pierce, Rockford, Ill.) and using Kodak BioMax MR film (Kodak, Rochester, N.Y.).
Phospho-akt 308 protein bands on the film were quantified using densitometry. An Alpha Imager (Alpha Innotech Corp, San Leandro, Calif.) using AlphaEase FC software version 4.1.0 (Alpha Innotech Corp.) was used to quantitate protein bands. Briefly, a rectangle of equal size was placed around each protein band as well as a background spot on the film. The densitometry values (IDV=Integrated Density Value) obtained for the background spot was then subtracted from the values obtained for the protein bands. These values were used to obtain an EC50 value using non-linear regression analysis in GraphPad Prism Version 4.00 (Graph Pad Prism, San Diego, Calif.). Percent decrease in expression of phosphoh-akt 308 were also measured specifically at 2 μM and 5 μM levels of inhibitor.

dephosphorylated PDK1 = dephosphorylated PDK1 (Homo sapiens (Human), UniProt O15530); experiment: PDK1 kinase assay (coupled PDK1/AKT/FAM-crosstide, IMAP); format: biochemical; conditions: 25 nM un-phosphorylated PDK1, 24 μM ATP; read-out: Inhibition of dephospo-PDK1 in vitro IC50
Procedure, shortened: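 The FAM-crosstide phosphorylation readout was IMAP polarization (ex 485/em 530 nm, 2 h binding), with 4-parameter fits of ΔmP data. The reaction ran 30 min at 25 °C with 24 μM ATP, and contained 25 nM phosphatase-treated PDK1 (aa 51–360) plus 30 nM unphosphorylated AKT2-PIFtide and 100 nM substrate. Buffer was 10 mM Tris pH 7.2, 10 mM MgCl2, 0.01% Triton X-100 and 1 mM DTT.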

[1] = PC-3 cells, 2 hours, no serum, read-out: Inhibition of P308 Akt in cells using MSD EC50
[2] = read-out: Reduction of Cellular Levels of Akt p308 By MSD ELISA (EC50 μM)
[3] = PC-3 cells, 2 hours, no serum, read-out: Reduction of Cellular Levels of Akt p308 By MSD ELISA (EC50 μM)

Sequence of phosphorylated PDK1 (O15530 51-360): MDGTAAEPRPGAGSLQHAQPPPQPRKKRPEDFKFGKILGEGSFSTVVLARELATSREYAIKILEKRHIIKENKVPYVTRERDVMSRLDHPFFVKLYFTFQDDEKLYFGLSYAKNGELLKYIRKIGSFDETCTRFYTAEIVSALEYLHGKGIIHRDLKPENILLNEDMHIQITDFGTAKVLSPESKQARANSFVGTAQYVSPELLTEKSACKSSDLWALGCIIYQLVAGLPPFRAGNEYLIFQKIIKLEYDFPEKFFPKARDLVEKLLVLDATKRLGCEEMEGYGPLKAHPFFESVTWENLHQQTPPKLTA
Sequence of dephosphorylated PDK1 (O15530 51-360): as above

Row | Structure (SMILES) | IC50 (phosphorylated PDK1) [nM] | EC50 (phospho-akt (Thr308); [1]) [µM] | inhibition at 1 µM (phospho-akt (Thr308); PC-3 cells) [%] | inhibition at 10 µM (phospho-akt (Thr308); PC-3 cells) [%] | Reduction of Cellular Levels of Akt p308 By Western (Phospho-T308 Akt) | inhibition at 5 µM (Phospho-T308 Akt) [%] | IC50 (dephosphorylated PDK1) [nM] | EC50 (phospho-akt (Thr308); read-out: Inhibition of P308 Akt in cells using MSD EC50) [µM] | EC50 (phospho-akt (Thr308); [2]) [µM] | inhibition at 2 µM (Phospho-T308 Akt) [%] | EC50 (phospho-akt (Thr308); [3]) [µM]
1 | O=C(NCc1noc(-c2c[nH]c3ncccc23)n1)c1cccn(Cc2ccc(Cl)cc2)c1=O [Cpd 305] | < 500 | 1 to 5 | < 25 | > 75 | bbb (inhibition of more than 75%) | > 75 | < 500 |  |  |  | 
2 | O=C(NCc1noc(-c2c[nH]c3ncccc23)n1)c1cc(Cl)cn(Cc2cccc(F)c2)c1=O [Cpd 310] | < 500 | 1 to 5 | 25 to 75 | 25 to 75 | bb (inhibition of from 25% to 75%) | 25 to 75 | < 500 |  |  |  | 
3 | O=C(NCc1noc(-c2c[nH]c3ncccc23)n1)c1cccn(Cc2cccc(Cl)c2)c1=O [Cpd 294] | < 500 |  |  |  | bb (inhibition of from 25% to 75%) | 25 to 75 | < 500 |  |  |  | 
4 | NC(=O)C[C@@H](NC(=O)c1cccn(Cc2ccc(F)c(F)c2)c1=O)c1ccc(-c2c[nH]c3ncccc23)s1 [Cpd 19] | < 500 |  |  |  | bbb (inhibition of more than 75%) |  |  | 1 to 5 | 1 to 5 | > 75 | 
5 | COC(=O)C[C@H](NC(=O)c1cccn(Cc2ccc(F)c(F)c2)c1=O)c1nnc(-c2c[nH]c3ncccc23)o1 [Cpd 291] | < 500 | < 1 | 25 to 75 | > 75 | bbb (inhibition of more than 75%) | > 75 |  |  |  |  | 
6 | CNC(=O)C[C@@H](NC(=O)c1cccn(Cc2ccc(F)c(F)c2)c1=O)c1ccc(-c2c[nH]c3ncccc23)s1 [Cpd 18] | < 500 | 1 to 5 |  |  | bb (inhibition of from 25% to 75%) |  |  |  |  | 25 to 75 | 1 to 5
7 | O=C(NCc1cccc(-c2ccc3nccn3c2)c1)c1cccn(Cc2ccc(F)c(F)c2)c1=O [Cpd 9] | < 500 |  |  |  | bbb (inhibition of more than 75%) |  | < 500 |  |  |  | 
8 | O=C(NCc1cccc(-c2c[nH]c3ncc(CO)cc23)c1)c1cccn(Cc2ccc(F)c(F)c2)c1=O [Cpd 225] |  |  |  |  | bbb (inhibition of more than 75%) | > 75 | < 500 |  |  |  | < 1
9 | O=C(NCc1ccc(-c2c[nH]c3ncc(F)cc23)s1)c1cccn(Cc2ccc(F)c(F)c2)c1=O [Cpd 11] | < 500 | < 1 |  |  | bbb (inhibition of more than 75%) | > 75 |  |  |  |  | < 1
10 | O=C(NCc1ccc(-c2c[nH]c3ncc(CO)cc23)s1)c1cccn(Cc2ccc(F)c(F)c2)c1=O [Cpd 12] | < 500 | < 1 | 25 to 75 | > 75 | bb (inhibition of from 25% to 75%) |  |  |  |  | 25 to 75 | 
11 | O=C(O)c1cnc2[nH]cc(-c3ccc(CNC(=O)c4cccn(Cc5ccc(F)c(F)c5)c4=O)s3)c2c1 [Cpd 21] | < 500 |  |  |  | b (inhibition of less 25%) |  |  |  | > 5 | < 25 | 
